Assay results published in publication PMC6060096, “Novel 3D Structure Based Model for Activity Prediction and Design of Antimicrobial Peptides” (Scientific Reports, 2018).
In brackets after ≈: the same amount, converted by molar mass. Residues, ends and D or L forms follow the SMILES beside them.

Assays:
Format in all cases: cell-based
[1] = tested on: Bacillus subtilis (CMCC(B)63501); assay: microbe, parasite or virus in culture
Description: (§1) The experimentally determined strains are as follows: Listeria monocytogenes (ATCC 19115), Staphylococcus aureus (CMCC(B)26003), Bacillus subtilis (CMCC(B)63501), Escherichia coli (CMCC(B) 44102), Pseudomonas aeruginosa (CMCC(B)10104), Enterococcus faecalis (clinical strains) from China Pharmaceutical University Microbiology Laboratory. Minimal inhibitory concentration(MIC) of peptides were determined using broth microdilution method. Two-fold serial dilutions of eight peptides were prepared from 1024.0 to 1.0 μg/ml in 96-well microtiter plate (100.0 μl of each well). Then peptide dilutions were mixed with LB broth and bacterial culture (100.0 μl) containing 2.0 × 10^5 CFU/ml. Final peptide concentrations ranged from 0.5 to 512.0 μg/ml. The final bacterial concentration was approximately 1.0 × 10^5 CFU/ml. Positive controls were incubated with Cefuroxime instead of peptide, at concentrations from 0.5 to 512.0 μg/ml. Negative and blank controls were incubated, respectively, with sterile deionized water or only LB broth. Microtiter plates were incubated at 37 °C for 24 h under normal atmospheric conditions. OD600 was measured using a microplate spectrophotometer (Multiskan GO, Thermo Scientific, USA). MIC was recorded as the endpoint where no difference of OD600 could be detected with respect to the blank LB broth. MIC assays were performed three times for all strains.

[2] = tested on: Escherichia coli (CMCC(B) 44102); assay: microbe, parasite or virus in culture
Description: as §1

[3] = tested on: Listeria monocytogenes (ATCC 19115); assay: microbe, parasite or virus in culture
Description: as §1

[4] = tested on: Pseudomonas aeruginosa (CMCC(B)10104); assay: microbe, parasite or virus in culture
Description: as §1

[5] = tested on: Staphylococcus aureus (CMCC(B)26003); assay: microbe, parasite or virus in culture
Description: as §1

[6] = tested on: Enterococcus faecalis (clinical strains); assay: MIC, broth microdilution; details: LB broth, ~1.0 × 10^5 CFU/ml, 0.5 to 512.0 μg/ml, 37 °C, 24 h, OD600, performed three times
Description: as §1

Row | Compound | MIC Listeria monocytogenes ([3]; ATCC 19115, 24 h) [µg/mL] | MIC Staphylococcus aureus ([5]; CMCC(B)26003, 24 h) [µg/mL] | MIC Bacillus subtilis ([1]; CMCC(B)63501, 24 h) [µg/mL] | further results
1 | CO/N=C(\C(=O)N[C@@H]1C(=O)N2C(C(=O)O)=C(COC(N)=O)CS[C@H]12)c1ccco1 [Cefuroxime, reference compound] | – | – | – | MIC ([1]; Bacillus subtilis, CMCC(B)63501, broth microdilution, LB broth, ~1.0 × 10^5 CFU/ml, 0.5 to 512.0 μg/ml, 37 °C, 24 h, OD600, performed three times): ≤ 0.5 µg/mL; MIC ([2]; Escherichia coli, CMCC(B) 44102, broth microdilution, LB broth, ~1.0 × 10^5 CFU/ml, 0.5 to 512.0 μg/ml, 37 °C, 24 h, OD600, performed three times): 8 µg/mL (≈ 18.9 µM); MIC ([3]; Listeria monocytogenes, ATCC19115, ATCC 19115, broth microdilution, LB broth, ~1.0 × 10^5 CFU/ml, 0.5 to 512.0 μg/ml, 37 °C, 24 h, OD600, performed three times): 4 µg/mL (≈ 9.43 µM); MIC ([4]; Pseudomonas aeruginosa, CMCC(B)10104, broth microdilution, LB broth, ~1.0 × 10^5 CFU/ml, 0.5 to 512.0 μg/ml, 37 °C, 24 h, OD600, performed three times): > 512 µg/mL; MIC ([5]; Staphylococcus aureus, CMCC(B)26003, broth microdilution, LB broth, ~1.0 × 10^5 CFU/ml, 0.5 to 512.0 μg/ml, 37 °C, 24 h, OD600, performed three times): 4 µg/mL (≈ 9.43 µM); MIC ([6]; Enterococcus faecalis): 16 µg/mL (≈ 37.7 µM)
2 | CC[C@H](C)[C@H](NC(=O)[C@H](CCCNC(=N)N)NC(=O)[C@H](CCCNC(=N)N)NC(=O)[C@H](CC(C)C)NC(=O)[C@@H](N)Cc1ccccc1)C(=O)N[C@@H](CCCNC(=N)N)C(=O)N[C@H](C(N)=O)C(C)C [FLRRIRV-NH2] (H-FLRRIRV-NH2) | 128 (≈ 134 µM) | 128 (≈ 134 µM) | – | –
3 | CC[C@H](C)[C@H](NC(=O)[C@H](CCCNC(=N)N)NC(=O)[C@H](CCCNC(=N)N)NC(=O)[C@H](CC(C)C)NC(=O)[C@@H](N)Cc1ccccc1)C(=O)N[C@@H](CCCNC(=N)N)C(=O)N[C@H](C(=O)N[C@H](C(=O)N1CCC[C@H]1C(=O)N[C@@H](Cc1c[nH]c2ccccc12)C(=O)N[C@H](C(=O)N[C@@H](CC(N)=O)C(=O)N1CCC[C@H]1C(=O)N1CCC[C@H]1C(=O)N[C@@H](Cc1ccccc1)C(=O)N[C@@H](CC(C)C)C(=O)N[C@@H](CCC(N)=O)C(=O)N[C@@H](CCC(N)=O)C(=O)N[C@H](C(N)=O)[C@@H](C)O)C(C)C)[C@@H](C)O)C(C)C [FLRRIRVTPWVNPPFLQQT-NH2] (H-FLRRIRVTPWVNPPFLQQT-NH2) | 128 (≈ 54.1 µM) | 256 (≈ 108 µM) | – | –
4 | CC[C@H](C)[C@H](NC(=O)[C@H](CCCNC(=N)N)NC(=O)[C@H](CCCNC(=N)N)NC(=O)[C@H](Cc1c[nH]c2ccccc12)NC(=O)[C@@H](N)Cc1ccccc1)C(=O)N[C@@H](CCCNC(=N)N)C(=O)N[C@H](C(N)=O)C(C)C [FWRRIRV-NH2] (H-FWRRIRV-NH2) | 32 (≈ 31 µM) | 64 (≈ 62.1 µM) | 128 (≈ 124 µM) | –
5 | CC[C@H](C)[C@H](NC(=O)[C@H](CCCNC(=N)N)NC(=O)[C@H](CCCNC(=N)N)NC(=O)[C@H](Cc1c[nH]c2ccccc12)NC(=O)[C@@H](N)Cc1ccccc1)C(=O)N[C@@H](CCCNC(=N)N)C(=O)N[C@H](C(=O)N[C@H](C(=O)N1CCC[C@H]1C(=O)N[C@H](C(=O)N[C@H](C(=O)N[C@@H](CC(N)=O)C(=O)N1CCC[C@H]1C(=O)N1CCC[C@H]1C(=O)N[C@@H](Cc1ccccc1)C(=O)N[C@@H](CC(C)C)C(=O)N[C@@H](CCC(N)=O)C(=O)N[C@@H](CCC(N)=O)C(=O)N[C@H](C(N)=O)[C@@H](C)O)C(C)C)C(C)C)[C@@H](C)O)C(C)C [FWRRIRVTPVVNPPFLQQT-NH2] (H-FWRRIRVTPVVNPPFLQQT-NH2) | 256 (≈ 109 µM) | 256 (≈ 109 µM) | – | –
6 | CC[C@H](C)[C@H](NC(=O)[C@H](CCCNC(=N)N)NC(=O)[C@H](CCCNC(=N)N)NC(=O)[C@H](Cc1c[nH]c2ccccc12)NC(=O)[C@@H](N)Cc1ccccc1)C(=O)N[C@@H](CCCNC(=N)N)C(=O)N[C@H](C(=O)N[C@H](C(=O)N1CCC[C@H]1C(=O)N[C@H](C(=O)N[C@H](C(=O)N[C@@H](CC(N)=O)C(=O)N1CCC[C@H]1C(=O)N[C@@H](Cc1c[nH]c2ccccc12)C(=O)N[C@@H](Cc1ccccc1)C(=O)N[C@@H](CC(C)C)C(=O)N[C@@H](CCC(N)=O)C(=O)N[C@@H](CCC(N)=O)C(=O)N[C@H](C(N)=O)[C@@H](C)O)C(C)C)C(C)C)[C@@H](C)O)C(C)C [FWRRIRVTPVVNPWFLQQT-NH2] (H-FWRRIRVTPVVNPWFLQQT-NH2) | 32 (≈ 13.1 µM) | 32 (≈ 13.1 µM) | 64 (≈ 26.2 µM) | MIC Escherichia coli ([2]; CMCC(B) 44102, 24 h): 256 µg/mL (≈ 105 µM); MIC Pseudomonas aeruginosa ([4]; CMCC(B)10104, 24 h): 256 µg/mL (≈ 105 µM)
7 | CC[C@H](C)[C@H](NC(=O)[C@H](CCCNC(=N)N)NC(=O)[C@H](CCCNC(=N)N)NC(=O)[C@H](Cc1c[nH]c2ccccc12)NC(=O)[C@@H](N)Cc1ccccc1)C(=O)N[C@@H](CCCNC(=N)N)C(=O)N[C@H](C(=O)N[C@H](C(=O)N1CCC[C@H]1C(=O)N[C@@H](Cc1c[nH]c2ccccc12)C(=O)N[C@H](C(=O)N[C@@H](CC(N)=O)C(=O)N1CCC[C@H]1C(=O)N1CCC[C@H]1C(=O)N[C@@H](Cc1ccccc1)C(=O)N[C@@H](CC(C)C)C(=O)N[C@@H](CCC(N)=O)C(=O)N[C@@H](CCC(N)=O)C(=O)N[C@H](C(N)=O)[C@@H](C)O)C(C)C)[C@@H](C)O)C(C)C [FWRRIRVTPWVNPPFLQQT-NH2] (H-FWRRIRVTPWVNPPFLQQT-NH2) | 64 (≈ 26.2 µM) | 64 (≈ 26.2 µM) | 256 (≈ 105 µM) | –
8 | CC(C)C[C@H](NC(=O)[C@H](Cc1ccccc1)NC(=O)[C@@H]1CCCN1C(=O)[C@@H]1CCCN1C(=O)[C@H](CC(N)=O)NC(=O)[C@@H](NC(=O)[C@@H](NC(=O)[C@@H]1CCCN1C(=O)[C@@H](N)[C@@H](C)O)C(C)C)C(C)C)C(=O)N[C@@H](CCC(N)=O)C(=O)N[C@@H](CCC(N)=O)C(=O)N[C@H](C(N)=O)[C@@H](C)O [TPVVNPPFLQQT-NH2, reference compound] (H-TPVVNPPFLQQT-NH2) | 512 (≈ 382 µM) | – | – | –
9 | FLRRIRVTPVVNPPFLQQT-NH2 | – | – | – | MIC Bacillus subtilis ([1]; CMCC(B)63501, broth microdilution, LB broth, ~1.0 × 10^5 CFU/ml, 0.5 to 512.0 μg/ml, 37 °C, 24 h, OD600, performed three times): — (“—” indicates that the peptide is inactive at 512 μg/ml.); MIC Escherichia coli ([2]; CMCC(B) 44102, broth microdilution, LB broth, ~1.0 × 10^5 CFU/ml, 0.5 to 512.0 μg/ml, 37 °C, 24 h, OD600, performed three times): — (“—” indicates that the peptide is inactive at 512 μg/ml.); MIC Listeria monocytogenes ([3]; ATCC 19115, broth microdilution, LB broth, ~1.0 × 10^5 CFU/ml, 0.5 to 512.0 μg/ml, 37 °C, 24 h, OD600, performed three times): — (“—” indicates that the peptide is inactive at 512 μg/ml.); MIC Pseudomonas aeruginosa ([4]; CMCC(B)10104, broth microdilution, LB broth, ~1.0 × 10^5 CFU/ml, 0.5 to 512.0 μg/ml, 37 °C, 24 h, OD600, performed three times): — (“—” indicates that the peptide is inactive at 512 μg/ml.); MIC Staphylococcus aureus ([5]; CMCC(B)26003, broth microdilution, LB broth, ~1.0 × 10^5 CFU/ml, 0.5 to 512.0 μg/ml, 37 °C, 24 h, OD600, performed three times): — (“—” indicates that the peptide is inactive at 512 μg/ml.); MIC Enterococcus faecalis [6]: — (“—” indicates that the peptide is inactive at 512 μg/ml.)
